Source: EP0666841B1, “SUCCINOYLAMINO HYDROXYETHYLAMINO SULFAMIC ACID DERIVATIVES USEFUL AS RETROVIRAL PROTEASE INHIBITORS” (G.D. SEARLE & CO., priority 1992, dated 1994)
Each block holds one compound with its values, some of them ahead of it.

Molecular target: T1, HIV protease (Human immunodeficiency virus type 1 group M subtype B, UniProt P04585)
T1 construct: HIV protease is diluted in the assay buffer to a final enzyme concentration of 12.3 nanomolar, based on a molecular weight of 10,780
Test: HIV protease enzyme assay (fluorescence, peptide substrate)
Format: biochemical
Conditions: read-out: IC50 or % inhibition
Text: The compounds of the present invention are effective HIV protease inhibitors. Utilizing an enzyme assay as described below, the compounds set forth in the examples herein disclosed inhibited the HIV enzyme. The preferred compounds of the present invention and their calculated IC50 (inhibiting concentration 50%, i.e., the concentration at which the inhibitor compound reduces enzyme activity by 50%) values are shown in Table 17. The enzyme method is described below. The substrate is 2-Ile-Nle-Phe(p-NO2)-Gln-ArgNH2. The positive control is MVT-101 (Miller, M. et al, Science, 246, 1149 (1989)] The assay conditions are as follows: Assay buffer: 20 mM sodium phosphate, pH 6.4 20% glycerol 1 mM EDTA 1 mM DTT 0.1% CHAPS
The above described substrate is dissolved in DMSO, then diluted 10 fold in assay buffer. Final substrate concentration in the assay is 80 µM.
HIV protease is diluted in the assay buffer to a final enzyme concentration of 12.3 nanomolar, based on a molecular weight of 10,780.
The final concentration of DMSO is 14% and the final concentration of glycerol is 18%. The test compound is dissolved in DMSO and diluted in DMSO to 10x the test concentration; 10µl of the enzyme preparation is added, the materials mixed and then the mixture is incubated at ambient temperature for 15 minutes. The enzyme reaction is initiated by the addition of 40µl of substrate. The increase in fluorescence is monitored at 4 time points (0, 8, 16 and 24 minutes) at ambient temperature. Each assay is carried out in duplicate wells.

Structure (SMILES): CN(C)S(=O)(=O)N(Cc1ccc(F)cc1)C[C@@H](O)[C@H](Cc1ccccc1)NC(=O)OCc1ccccc1 [B]
inhibition at 10 µM: 55%

Structure (SMILES): CC(C)(C)NS(=O)(=O)N(C[C@@H](O)[C@H](Cc1ccccc1)NC(=O)OCc1ccccc1)C1CCCCC1 [K]
inhibition at 1 µM: 60%

Structure (SMILES): CC(C)(C)NS(=O)(=O)N(Cc1ccccc1)C[C@@H](O)[C@H](Cc1ccccc1)NC(=O)OCc1ccccc1 [H]
inhibition at 10 µM: 48%

Structure (SMILES): CC(C)CN(C[C@@H](O)[C@H](Cc1ccccc1)NC(=O)OCc1ccccc1)S(=O)(=O)Nc1ccccc1 [E]
IC50 (IC50 values printed in nM): 70 nM

More lines, now with the values ahead:

inhibition at 1 µM: 59%
Structure (SMILES): CC(C)CN(C[C@@H](O)[C@H](Cc1ccccc1)NC(=O)OCc1ccccc1)S(=O)(=O)NC(C)C [C]

inhibition at 0.1 µM: 22%
Structure (SMILES): CC(C)CN(C[C@@H](O)[C@H](Cc1ccccc1)NC(=O)OCc1ccccc1)S(=O)(=O)N1CCCC1 [F]

inhibition at 0.1 µM: 29%
Structure (SMILES): CC(C)CN(C[C@@H](O)[C@H](Cc1ccccc1)NC(=O)OCc1ccccc1)S(=O)(=O)N1CCN(C)CC1 [D]

inhibition at 0.1 µM: 29%
Structure (SMILES): CNS(=O)(=O)N(CC(C)C)C[C@@H](O)[C@H](Cc1ccccc1)NC(=O)OCc1ccccc1 [A]
